Results from ChEMBL document CHEMBL3244189, “Synthesis and antitumor properties of 7-deoxy-7-[(cis- and trans-3-aminocyclohexane)thio]carminomycinone” (1979).
The source made the active and inactive calls. No cut-off for these calls is given here.

How the values were obtained:
Type in all cases: functional
[1] = tested on: L1210; assay: Antitumor activity against mouse L1210 cells allografted in mouse assessed as tumor growth inhibition at 0.64 mg/kg, ip relative to control; details: route intraperitoneal
[2] = tested on: Enterobacteria phage lambda; assay: Induction of lambda phage production in Escherichia coli W1709 (lambda) assessed as plaque formation at 3.1 ug/ml preincubated for 30 mins followed by heart infusion broth and glucose addition measured after 120 mins relative to control
[3] = tested on: Bacillus spizizenii; assay: Antibacterial activity against Bacillus subtilis ATCC 6633 at 3.1 ug/ml by plate assay; details: read-out: IZ
[4] = tested on: Enterobacteria phage lambda; assay: Induction of lambda phage production in Escherichia coli W1709 (lambda) assessed as plaque formation up to 50 ug/ml preincubated for 30 mins followed by heart infusion broth and glucose addition measured after 120 mins
[5] = tested on: Bacillus spizizenii; assay: Antibacterial activity against Bacillus subtilis ATCC 6633 at 50 ug/ml by plate assay; details: read-out: IZ
[6] = tested on: L1210; assay: Antitumor activity against mouse L1210 cells allografted in mouse assessed as tumor growth inhibition at 0.25 to 32 mg/kg, ip relative to control; details: dose mg/kg 0.25-32; route intraperitoneal

Compound | T/C [1] | T/C [2] | zone of inhibition at 3.1 µg/mL [3] [mm] | Activity [4] | zone of inhibition at 50 µg/mL [5] [mm] | T/C [6]
CC(=O)[C@]1(O)Cc2c(O)c3c(c(O)c2[C@@H](O[C@H]2C[C@H](N)[C@H](O)[C@H](C)O2)C1)C(=O)c1c(O)cccc1C3=O [CARUBICIN] | 157 | 6.2 | 19 |  |  | 
CC(=O)[C@]1(O)Cc2c(O)c3c(c(O)c2[C@@H](S[C@@H]2CCC[C@@H](N)C2)C1)C(=O)c1c(O)cccc1C3=O |  |  |  | inactive | 10.5 | 
CC(=O)[C@]1(O)Cc2c(O)c3c(c(O)c2[C@@H](S[C@H]2CCC[C@@H](N)C2)C1)C(=O)c1c(O)cccc1C3=O |  |  |  | inactive | 10.3 | <125
